Results reported in publication PMC5733478, “A Non-imaging High Throughput Approach to Chemical Library Screening at the Unmodified Adenosine-A3 Receptor in Living Cells” (Frontiers in Pharmacology, 2017).

biological target: T1, human A3AR (Homo sapiens, UniProt P0DMS8); experiment: LOPAC library primary screen: single concentration (10 μM) inhibition of 25 nM CA200645 binding, PHERAstar FS; details: not given
T1 construct: expressed in transfected cells
T1 sequence (P0DMS8 1-318): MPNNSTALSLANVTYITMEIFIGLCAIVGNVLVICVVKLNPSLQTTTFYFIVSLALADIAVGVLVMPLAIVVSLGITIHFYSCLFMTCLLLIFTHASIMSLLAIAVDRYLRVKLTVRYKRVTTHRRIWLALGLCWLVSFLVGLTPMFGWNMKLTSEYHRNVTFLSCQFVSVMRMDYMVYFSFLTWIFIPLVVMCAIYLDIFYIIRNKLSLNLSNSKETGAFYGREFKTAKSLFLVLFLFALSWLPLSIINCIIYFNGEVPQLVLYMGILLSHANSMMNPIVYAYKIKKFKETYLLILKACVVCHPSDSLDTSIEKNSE

Question: For `CNCC(O)c1ccc(O)c(O)c1.Cl` (racemic) [(±)-Epinephrine hydrochloride], which “% 25 nM CA200645 binding” value is on record?
Answer: 95.7 ± 7.0%

Question: With `NC1CCN(O)C1=O` (racemic) [(±)-HA-966] as the molecule, how does the “% 25 nM CA200645 binding” value read?
Answer: 96.6 ± 6.4%

Question: For `N[C@H](C(=O)O)c1cc(O)no1` (racemic) [(±)-Ibotenic acid], which “% 25 nM CA200645 binding” value is on record?
Answer: 93.1 ± 9.6%

Question: `CC(C)NCC(O)c1ccc(O)c(O)c1.Cl` (racemic) [(±)-Isoproterenol hydrochloride] was tested. Which “% 25 nM CA200645 binding” value did it give?
Answer: 95.3 ± 10.4%

Question: `COc1ccc(CCN(C)CCCC(C#N)(c2cc(OC)c(OC)c(OC)c2)C(C)C)cc1OC.Cl` (racemic) [(±)-Methoxyverapamil hydrochloride] was tested. Which “% 25 nM CA200645 binding” value did it give?
Answer: 97.3 ± 10.6%

Question: Which “% 25 nM CA200645 binding” value does the source give for `COCCc1ccc(OCC(O)CNC(C)C)cc1.O=C(O)C(O)C(O)C(=O)O` (racemic) [(±)-Metoprolol (+)-tartrate] here?
Answer: 83.3 ± 9.2%

Question: With `C[C@@H]1O[C@H](C[N+](C)(C)C)C[C@H]1O.[Cl-]` (racemic) [(±)-Muscarine chloride] as the molecule, how does the “% 25 nM CA200645 binding” value read?
Answer: 94.8 ± 15.8%

Question: How did the “% 25 nM CA200645 binding” value turn out when `O=C(O)C1CCCNC1` (racemic) [(±)-Nipecotic acid] was run?
Answer: 101.9 ± 5.9%

Question: How did the “% 25 nM CA200645 binding” value turn out when `NC[C@H](O)c1ccc(O)c(O)c1.O=C(O)C(O)C(O)C(=O)O` (racemic) [(±)-Norepinephrine (+)bitartrate] was run?
Answer: 87.1 ± 8.1%

Question: `Cl.NCC(O)c1ccc(O)cc1` (racemic) [(±)-Octopamine hydrochloride] was tested. Which “% 25 nM CA200645 binding” value did it give?
Answer: 103.0 ± 1.6%

Question: How did the “% 25 nM CA200645 binding” value turn out when `CCCN1CCOC2c3cc(O)ccc3OCC21.Cl` (racemic) [(±)-PD 128,907 hydrochloride] was run?
Answer: 103.2 ± 2.1%

Question: `CCCN(CCc1ccccc1)C1CCc2c(O)cccc2C1.Cl` (racemic) [(±)-PPHT hydrochloride] was tested. Which “% 25 nM CA200645 binding” value did it give?
Answer: 101.7 ± 5.1%

Question: With `CC(C)NCC(O)COc1cccc2ccccc12.Cl` (racemic) [(±)-Propranolol hydrochloride] as the molecule, how does the “% 25 nM CA200645 binding” value read?
Answer: 106.0 ± 10.5%

Question: For `Br.C=CCN1CCc2cc(O)c(O)cc2C(c2ccccc2)C1` (racemic) [(±)-SKF 38393, N-allyl-, hydrobromide], which “% 25 nM CA200645 binding” value is on record?
Answer: 99.7 ± 11.6%

Question: Which “% 25 nM CA200645 binding” value does the source give for `Cl.Oc1cc2c(cc1O)C(c1ccccc1)CNCC2` (racemic) [(±)-SKF-38393 hydrochloride] here?
Answer: 99.4 ± 9.0%

Question: `CC(C)NCC(O)c1ccc(NS(C)(=O)=O)cc1.Cl` (racemic) [(±)-Sotalol hydrochloride] was tested. Which “% 25 nM CA200645 binding” value did it give?
Answer: 93.5 ± 12.0%

Question: How did the “% 25 nM CA200645 binding” value turn out when `CCN1CCCC1CNC(=O)c1cc(S(N)(=O)=O)ccc1OC` (racemic) [(±)-Sulpiride] was run?
Answer: 102.1 ± 6.1%

Question: Which “% 25 nM CA200645 binding” value does the source give for `CNCC(O)c1ccc(O)cc1` (racemic) [(±)-Synephrine] here?
Answer: 90.7 ± 28.9%

Question: For `O=C1c2c(O)cc(O)cc2O[C@H](c2ccc(O)c(O)c2)[C@H]1O` (racemic) [(±)-Taxifolin], which “% 25 nM CA200645 binding” value is on record?
Answer: 111.1 ± 7.5%

Question: For `O=C1CCC(N2C(=O)c3ccccc3C2=O)C(=O)N1` (racemic) [(±)-Thalidomide], which “% 25 nM CA200645 binding” value is on record?
Answer: 108.7 ± 11.6%

Question: How did the “% 25 nM CA200645 binding” value turn out when `COc1cc(C(O)C(=O)O)ccc1O` (racemic) [(±)-Vanillylmandelic acid] was run?
Answer: 97.4 ± 12.9%

Question: `Cl.OC1CCCCC1N1CCC(c2ccccc2)CC1` (racemic) [(±)-Vesamicol hydrochloride] was tested. Which “% 25 nM CA200645 binding” value did it give?
Answer: 112.9 ± 7.4%

Question: With `O=C(O)CCCCC1CCSS1` (racemic) [(±)-alpha-Lipoic Acid] as the molecule, how does the “% 25 nM CA200645 binding” value read?
Answer: 99.7 ± 5.6%

Question: With `O=C(O)[C@H]1CCCN[C@H]1C(=O)O` (racemic) [(±)-cis-Piperidine-2,3-dicarboxylic acid] as the molecule, how does the “% 25 nM CA200645 binding” value read?
Answer: 99.4 ± 1.9%

Question: With `C=CC(N)CCC(=O)O` (racemic) [(±)-gamma-Vinyl GABA] as the molecule, how does the “% 25 nM CA200645 binding” value read?
Answer: 96.9 ± 7.5%

Question: For `CCC1(c2ccc(N)cc2)CCC(=O)NC1=O` (racemic) [(±)-p-Aminoglutethimide], which “% 25 nM CA200645 binding” value is on record?
Answer: 94.1 ± 8.7%

Question: `NC(Cc1ccc(Cl)cc1)C(=O)O` (racemic) [(±)-p-Chlorophenylalanine] was tested. Which “% 25 nM CA200645 binding” value did it give?
Answer: 94.9 ± 9.4%

Question: With `N[C@@H]1CONC1=O` (racemic) [DL-Cycloserine] as the molecule, how does the “% 25 nM CA200645 binding” value read?
Answer: 97.4 ± 8.2%

Question: With `CCCCCCCCCCCCCCCCCC(=O)OC(CC(=O)O)C[N+](C)(C)C.[Cl-]` (racemic) [DL-Stearoylcarnitine chloride] as the molecule, how does the “% 25 nM CA200645 binding” value read?
Answer: 44.2 ± 6.0%

Question: `CC(N)(Cc1ccc(O)cc1)C(=O)O` (racemic) [DL-alpha-Methyl-p-tyrosine] was tested. Which “% 25 nM CA200645 binding” value did it give?
Answer: 102.4 ± 5.8%

Question: Which “% 25 nM CA200645 binding” value does the source give for `CCCCCCCCCCCCCCC[C@H](O)[C@H](N)CO` (racemic) [DL-erythro-Dihydrosphingosine] here?
Answer: 98.5 ± 11.2%

Question: How did the “% 25 nM CA200645 binding” value turn out when `NC(C(=O)O)C(O)C(=O)O` (racemic) [DL-threo-beta-hydroxyaspartic acid] was run?
Answer: 97.0 ± 9.5%

Question: With `CCCCCCCCCCCCCCCC(=O)OC(CC(=O)O)C[N+](C)(C)C.[Cl-]` (racemic) [Palmitoyl-DL-Carnitine chloride] as the molecule, how does the “% 25 nM CA200645 binding” value read?
Answer: 82.9 ± 21.8%

Question: For `CCN1CCC[C@H]1CNC(=O)c1c(O)c(Cl)cc(Cl)c1OC.O=C(O)C(O)C(O)C(=O)O` (racemic) [S(+)-Raclopride L-tartrate], which “% 25 nM CA200645 binding” value is on record?
Answer: 98.6 ± 4.9%

Question: Which “% 25 nM CA200645 binding” value does the source give for `Br.CCCN1CCC2c3cc(O)ccc3CCC21` (racemic) [cis(+/-)-8-OH-PBZI hydrobromide] here?
Answer: 98.1 ± 5.1%

Question: `COc1ccc2c(c1OC)C(=O)OC2C1c2cc3c(cc2CCN1C)OCO3` (single isomer, unassigned; (+)) [(+)-Hydrastine] was tested. Which “% 25 nM CA200645 binding” value did it give?
Answer: 95.9 ± 10.1%

Question: With `CC12NC(Cc3ccccc31)c1ccccc12.O=C(O)/C=C\C(=O)O` (single isomer, unassigned; (+)) [(+)-MK-801 hydrogen maleate] as the molecule, how does the “% 25 nM CA200645 binding” value read?
Answer: 104.8 ± 18.5%

Question: With `CC(C)NCC(O)c1ccc(O)c(O)c1.Cl` (single isomer, unassigned; (-)) [(-)-Isoproterenol hydrochloride] as the molecule, how does the “% 25 nM CA200645 binding” value read?
Answer: 98.6 ± 14.4%

Question: Which “% 25 nM CA200645 binding” value does the source give for `C[N+]1(C)[C@@H]2CC(OC(=O)[C@H](CO)c3ccccc3)C[C@H]1[C@@H]1O[C@@H]12.O=[N+]([O-])[O-]` (single isomer, unassigned; (-)) [(-)-Scopolamine methyl nitrate] here?
Answer: 89.5 ± 24.4%

Question: `CC(N)C(O)c1ccc(O)c(O)c1` (single isomer, unassigned; (-)) [(-)-alpha-Methylnorepinephrine] was tested. Which “% 25 nM CA200645 binding” value did it give?
Answer: 100.4 ± 6.1%

Question: `Nc1nc(Cl)nc2c1ncn2[C@@H]1O[C@H](COP(=O)(O)OP(=O)(O)OP(=O)(O)O)C(O)C1O` (stereo in doubt) was tested. Which “% 25 nM CA200645 binding” value did it give?
Answer: 89.5 ± 23.0%

Question: For `N.N.N.Nc1ncnc2c1ncn2C1OC(COP(=O)(O)OP(=O)(O)OP(=O)(O)OP(=O)(O)OC[C@H]2O[C@@H](n3cnc4c(N)ncnc43)C(O)C2O)[C@@H](O)C1O` (stereo in doubt), which “% 25 nM CA200645 binding” value is on record?
Answer: 101.2 ± 10.2%

Question: `Nc1ncnc2c1nc(Sc1ccc(Cl)cc1)n2C1OC2COP(=O)(O)OC2C1O` (stereo in doubt) [8-(4-Chlorophenylthio)-cAMP sodium] was tested. Which “% 25 nM CA200645 binding” value did it give?
Answer: 91.8 ± 2.6%

Question: With `CCCCC1(C2CCCC2)Cc2cc(OCC(=O)O)c(Cl)c(Cl)c2C1=O` (stereo in doubt) [R(+)-Butylindazone] as the molecule, how does the “% 25 nM CA200645 binding” value read?
Answer: 91.2 ± 11.8%

Question: `Cn1c(=O)c2[nH]c(-c3ccccc3)nc2n(C)c1=O` [1,3-Dimethyl-8-phenylxanthine] was tested. Which “% 25 nM CA200645 binding” value did it give?
Answer: 91.8 ± 4.8%

Question: `CCCn1c(=O)c2c(ncn2C)n(CCC)c1=O` [1,3-Dipropyl-7-methylxanthine] was tested. Which “% 25 nM CA200645 binding” value did it give?
Answer: 102.9 ± 21.6%

Question: Which “% 25 nM CA200645 binding” value does the source give for `CCCn1c(=O)c2[nH]c(-c3ccc(S(=O)(=O)O)cc3)nc2n(CCC)c1=O` [1,3-dipropyl-8-p-sulfophenylxanthine, reference compound] here?
Answer: 42.3 ± 4.8%

Question: And the “% Total CA200645 binding” value?
Answer: 42.3 ± 4.8%

Question: What about the “hit in LOPAC primary screen (inhibited the binding of CA200645 by >40%)” value of the same molecule?
Answer: identified

Question: Which “% 25 nM CA200645 binding” value does the source give for `OC[C@H]1NC[C@@H](O)[C@@H]1O` [1,4-Dideoxy-1,4-imino-D-arabinitol] here?
Answer: 90.0 ± 6.2%

Question: Which “% 25 nM CA200645 binding” value does the source give for `Oc1cccc2c(O)nccc12` [1,5-Isoquinolinediol] here?
Answer: 97.2 ± 4.1%

Question: How did the “% 25 nM CA200645 binding” value turn out when `Cn1c(=O)[nH]c2ncn(C)c2c1=O` [1,7-Dimethylxanthine] was run?
Answer: 100.9 ± 19.4%

Question: For `O.c1cnc2c(c1)ccc1cccnc12` [1,10-Phenanthroline monohydrate], which “% 25 nM CA200645 binding” value is on record?
Answer: 90.7 ± 13.0%

Question: `Oc1ccc(Cn2cc[nH]c2=S)cc1` [1-(4-Hydroxybenzyl)imidazole-2-thiol] was tested. Which “% 25 nM CA200645 binding” value did it give?
Answer: 87.3 ± 21.6%

Question: `Nn1nnc2ccccc21` [1-Aminobenzotriazole] was tested. Which “% 25 nM CA200645 binding” value did it give?
Answer: 83.5 ± 18.8%

same assay, conditions: % of control wells (1% DMSO and 25 nM CA200645); compounds at 10 µM; […]; mean ± SD, three experiments in duplicate

Question: For `CN1CCN(C2Cc3ccccc3Sc3ccc(Cl)cc32)CC1.O=C(O)/C=C\C(=O)O` (racemic) [(±)-Octoclothepin maleate], which “% 25 nM CA200645 binding” value is on record?
Answer: 83.2 ± 25.2%

same assay, conditions: % of control wells (1% DMSO and 25 nM CA200645); compounds at 10 µM; whole live cells expressing the A3AR; mean ± SD, three experiments in duplicate

Question: How did the “% 25 nM CA200645 binding” value turn out when `O=C(O)CNC(=O)C(CS)Cc1ccccc1` (racemic) [DL-Thiorphan] was run?
Answer: 100.0 ± 12.5%

same assay, conditions: compounds tested at 10 µM; % of control wells (1% DMSO and 25 nM CA200645); […]; mean ± SD, three experiments in duplicate

Question: For `COc1cc(C(O)CN)ccc1O.Cl` (racemic) [(±)-Normetanephrine hydrochloride], which “% 25 nM CA200645 binding” value is on record?
Answer: 95.5 ± 24.8%
